The subject of data set [1] is BMDM. As to the kind of experiment: Cytotoxicity against mouse Bone marrow macrophage at 10 uM measured after 72 hrs by MTT assay. In kind it is toxicity, cell-based. (In general: Tetrazolium assays rely on reduction of a dye to a coloured formazan, in cell work by metabolically active cells.)
Data set [2] has as its system BMDM. The data set can be described thus: Inhibition of osteoclastogenesis in C57BL/6J mouse Bone marrow macrophage cells assessed as inhibition of RANKL-stimulated osteoclast formation measured after 6 days by tartrate-resistant acid phosphatase (TRAP) staining assay. Conditions: 144 h.
The target in data set [3] is T1, Peroxisome proliferator-activated receptor gamma (Homo sapiens, UniProt P37231).
T1 sequence (P37231 whole entry): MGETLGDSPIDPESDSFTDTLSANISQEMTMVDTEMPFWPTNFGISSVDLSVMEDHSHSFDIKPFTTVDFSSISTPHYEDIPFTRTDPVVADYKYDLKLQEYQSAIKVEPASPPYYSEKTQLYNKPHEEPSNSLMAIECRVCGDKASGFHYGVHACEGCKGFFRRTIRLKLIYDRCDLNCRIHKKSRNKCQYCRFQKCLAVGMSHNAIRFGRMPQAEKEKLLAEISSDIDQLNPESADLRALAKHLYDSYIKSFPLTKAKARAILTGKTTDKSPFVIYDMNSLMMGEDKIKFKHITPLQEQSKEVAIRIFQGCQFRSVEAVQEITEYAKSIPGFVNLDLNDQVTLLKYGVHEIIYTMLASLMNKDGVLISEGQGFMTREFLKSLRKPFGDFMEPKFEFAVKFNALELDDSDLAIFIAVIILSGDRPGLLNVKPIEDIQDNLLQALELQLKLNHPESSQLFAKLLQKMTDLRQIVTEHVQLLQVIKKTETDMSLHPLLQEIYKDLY
As to the kind of experiment: Antagonist activity at PPAR gamma LBD (203 to 476 residues) (unknown origin) expressed in HEK293T cells co-transfected with pCMV-GAL4-PPARgamma-LBD-SV40-Renilla-luciferase assessed as reduction of rosiglitazone induced PPAR-gamma activation incubated for 24 hrs by dural-luciferase reporter assay. It is filed as cell-based.

`COC(=O)[C@@H]1CCC[C@@H]2[C@@](C)(C[C@H](O)C3=CC(=O)OC3)[C@H](C)C[C@H](O)[C@]21C`: in the data set with BMDM [1], the Activity result is given as “Non-Toxic”. As to `C[C@@H]1C[C@H](O)[C@@]2(COC(=O)c3ccc(C(F)(F)F)cc3)C(=O)CCC[C@@H]2[C@@]1(C)CCC1=CC(=O)OC1`, the Activity result with BMDM [1] is on record as “Non-Toxic”. The same measure, in the same setting: the same measure for `C/C=C(\C)C(=O)O[C@@H](C[C@@]1(C)[C@H](C)C[C@H](OC(C)=O)[C@]2(COC(C)=O)[C@@H]1CCC[C@]2(O)CCl)C1=CC(=O)OC1`: “Non-Toxic”. A word on the IC50: it is the concentration at which inhibition is half-maximal. For `C[C@@H]1C[C@H](O)[C@@]2(CO)C(=O)CCC[C@@H]2[C@@]1(C)CCC1=CC(=O)OC1`, the Activity result in the data set with BMDM [1] is reported as “Non-Toxic”. The IC50 is over 10 µM with BMDM [2] and over 20 µM in data set [3]. Consider `C/C=C(\C)C(=O)O[C@@H]1CC[C@]2(CO2)[C@]2(COC(C)=O)[C@@H](OC(C)=O)C[C@@H](C)[C@](C)(C[C@H](OC(=O)C(C)CC)C3=CC(=O)OC3)[C@@H]12` (stereo not given in full), for which the Activity result in the data set with BMDM [1] was “Non-Toxic”. On the same count and under the same terms, then `CC(=O)OC[C@@]12[C@@H](OC(C)=O)C[C@@H](C)[C@](C)(C[C@H](O)C3=CC(=O)OC3)[C@H]1CCC[C@]21CO1` [AJUGALIDE C], with “Non-Toxic”.

On to `C[C@@H]1C[C@H](O)[C@@]2(COC(=O)/C=C/c3ccc(F)cc3)C(=O)CCC[C@@H]2[C@@]1(C)CCC1=CC(=O)OC1`, for which the Activity entry in the data set with BMDM [1] is “Non-Toxic”.

As to `C/C=C(\C)C(=O)O[C@@H]1CC[C@]2(CO2)[C@@]2(COC(C)=O)[C@H]1[C@@](C)(C[C@H](OC(C)=O)C1=CC(=O)OC1)[C@H](C)C[C@@H]2O`, the Activity result in the data set on BMDM [1] is given as “Non-Toxic”. Consider `C[C@@H]1C[C@H](O)[C@@]2(COC(=O)c3ccc(N(C)C)cc3)C(=O)CCC[C@@H]2[C@@]1(C)CCC1=CC(=O)OC1`, for which, in the data set with BMDM [1], the Activity result was “Non-Toxic”. Further, in the data set on BMDM [2], the IC50 came out at 0.31 µM. For the compound `C/C=C(\C)C(=O)O[C@@H]1CC[C@]2(CO2)[C@]2(COC(C)=O)[C@@H](OC(C)=O)C[C@@H](C)[C@](C)(C[C@H](OC(C)=O)C3=CC(=O)OC3)[C@@H]12` [AJUGAMARIN A2], the Activity result in the data set with BMDM [1] was “Non-Toxic”. As to `C/C=C(\C)C(=O)OC[C@@]12[C@@H](OC(C)=O)C[C@@H](C)[C@](C)(CCC3=CC(=O)OC3)[C@H]1CCC[C@H]2C(=O)O`, the Activity entry in the data set on BMDM [1] is reported as “Non-Toxic”. Still for that read-out and setting: then `CC(=O)OC[C@@]12[C@@H](OC(C)=O)C[C@@H](C)[C@](C)(C[C@H](OC(C)=O)C3=CC(=O)OC3)[C@H]1[C@H](OC(C)=O)CC[C@]21CO1` [AJUGAPANTIN A], with “Non-Toxic”. As for `CCC(C)C(=O)O[C@@H]1CC[C@]2(CO2)[C@]2(COC(C)=O)[C@@H](OC(C)=O)C[C@@H](C)[C@](C)(C[C@H](OC(C)=O)C3=CC(=O)OC3)[C@@H]12` (stereo not given in full), the Activity result with BMDM [1] is on record as “Non-Toxic”. On the same count and under the same terms, then `COC(=O)[C@@H]1CCC[C@@H]2[C@@](C)(C[C@@H]3OC(=O)C=C3CO)[C@H](C)C[C@H](O)[C@]21C`, with “Non-Toxic”. For `C/C=C(\C)C(=O)OC[C@]12[C@H]3CCC[C@@]1(O)CO[C@@]2(O)C[C@H](C)[C@@]3(C)CCC1=CC(=O)OC1`, the Activity result in the data set with BMDM [1] is “Non-Toxic”. In addition, the IC50 in the data set with BMDM [2] amounted to 1.04 µM; in data set [3] it was 8.18 µM.

On to `C/C=C(\C)C(=O)OC[C@@]12C(=O)C[C@@H](C)[C@](C)(CCC3=CC(=O)OC3)[C@H]1CCC[C@]2(O)CCl`, for which the Activity entry with BMDM [1] was “Toxic”. As to `C/C=C(\C)C(=O)O[C@@H]1CC[C@](O)(CCl)[C@]2(COC(C)=O)[C@@H](OC(C)=O)C[C@@H](C)[C@](C)(C/C=C(/C=O)CC(=O)OC)[C@@H]12`, the Activity result in the data set on BMDM [1] was “Non-Toxic”. The results for the IC50 (in the data set with BMDM [2]; in data set [3]) were over 10 µM and over 20 µM, respectively. Consider `C/C=C(\C)C(=O)O[C@@H](C[C@@]1(C)[C@H](C)C[C@H](OC(C)=O)[C@]2(COC(C)=O)[C@@H]1[C@H](OC(=O)/C(C)=C/C)CC[C@]21CO1)C1=CC(=O)OC1` [AJUGATAKASIN A], for which the Activity entry with BMDM [1] is “Non-Toxic”. As to `O=C(Nc1ccncc1)c1cc([N+](=O)[O-])ccc1Cl`, in the data set with BMDM [2], the IC50 was 0.067 µM. For the compound `C[C@@H]1C[C@H](O)[C@@]2(COC(=O)c3ccc(F)cc3)C(=O)CCC[C@@H]2[C@@]1(C)CCC1=CC(=O)OC1`, the Activity entry with BMDM [1] was “Non-Toxic”. On the same count and under the same terms, the same measure for `C[C@@H]1C[C@H](O)[C@@]23COC[C@@H]2CCC[C@@H]3[C@@]1(C)CCC1=CC(=O)OC1`: “Non-Toxic”. For the compound `C/C=C(\C)C(=O)OC[C@@]12C(=O)C[C@@H](C)[C@](C)(CCC3=CC(=O)OC3)[C@H]1CCC[C@]21CO1`, the Activity entry with BMDM [1] was “Non-Toxic”. Moreover, the IC50 with BMDM [2] was 0.83 µM; in data set [3], 2.05 µM. The matching figures for `CC(=O)O[C@H]1C[C@@H](C)[C@](C)(CCC2=CC(=O)OC2)[C@H]2CCCC(=O)[C@]12CO`: “Non-Toxic”, over 10 µM and over 20 µM. On to `C[C@@H]1C[C@H](O)[C@@]2(COC(=O)/C=C/c3ccc(C(F)(F)F)cc3)C(=O)CCC[C@@H]2[C@@]1(C)CCC1=CC(=O)OC1`, for which, in the data set with BMDM [1], the Activity result is listed as “Non-Toxic”. On to `C/C=C(\C)C(=O)O[C@@H]1CC[C@]2(CO2)[C@]2(COC(C)=O)[C@@H](OC(C)=O)C[C@@H](C)[C@](C)(CC(=O)C3=CC(=O)OC3)[C@@H]12`, for which, in the data set on BMDM [1], the Activity entry is on record as “Non-Toxic”. The figures for the IC50 (in the data set with BMDM [2]; in data set [3]) were over 10 µM and over 20 µM, respectively. The matching figures for `C/C=C(\C)C(=O)OC[C@@]12[C@@H](OC(C)=O)C[C@@H](C)[C@](C)(CCC3=CC(=O)OC3)[C@H]1CCC[C@]2(O)COC(C)=O`: “Non-Toxic”, 6.12 µM and over 20 µM. Regarding `C/C=C(\C)C(=O)OC[C@@]12[C@H](CCC[C@]13CO3)[C@@](C)(CCC1=CC(=O)OC1)[C@H](C)C[C@@H]2O`, the Activity entry in the data set with BMDM [1] was “Non-Toxic”. The same measure, in the same setting: the same measure for `C/C=C(\C)C(=O)OC[C@]12C(=O)CCC[C@@H]1[C@@](C)(CCC1=CC(=O)OC1)[C@H](C)C[C@@H]2OC(C)=O`: “Non-Toxic”; for `CCC(C)C(=O)O[C@@H]1CC[C@]2(CO2)[C@]2(COC(C)=O)[C@@H](OC(C)=O)C[C@@H](C)[C@](C)(C[C@H](O)C3=CC(=O)OC3)[C@@H]12` (stereo not given in full) [DIHYDROAJUGAMARIN]: “Non-Toxic”; for `C/C=C(\C)C(=O)OC[C@@]12[C@@H](OC(C)=O)C[C@@H](C)[C@](C)(C[C@H](O)C3=CC(=O)OC3)[C@H]1CCC[C@]21CO1`: “Non-Toxic”. Regarding `C/C=C(\C)C(=O)O[C@@H]1CC[C@]2(CO2)[C@]2(COC(C)=O)[C@@H](OC(C)=O)C[C@@H](C)[C@](C)(C[C@H](O)C3=CC(=O)OC3)[C@@H]12` [AJUGAMARIN A1], in the data set on BMDM [1], the Activity result was “Non-Toxic”. On to `C/C=C(\C)C(=O)O[C@@H]1CC[C@](O)(CCl)[C@]2(COC(C)=O)[C@@H](OC(C)=O)C[C@@H](C)[C@](C)(C[C@H](O)C3=CC(=O)OC3)[C@@H]12` [AJUGAMARIN A1 CHLOROHYDRIN], for which, in the data set with BMDM [1], the Activity entry is “Non-Toxic”. On the same count and under the same terms, the same measure for `COC(=O)[C@@H]1CC[C@@H](O)[C@@H]2[C@@](C)(C[C@H](O)C3=CC(=O)OC3)[C@H](C)C[C@H](O)[C@]21C`: “Non-Toxic”.

With `C/C=C(\C)C(=O)O[C@@H](C[C@@]1(C)[C@H](C)C[C@H](OC(C)=O)[C@]2(COC(C)=O)[C@@H]1[C@H](OC(C)=O)CC[C@]21CO1)C1=CC(=O)OC1` [AJUGANIPPONIN A], the Activity entry with BMDM [1] is “Non-Toxic”. The IC50 in data set [3] was 11.6 µM.

For the origin of these results see ChEMBL document CHEMBL5579883, “Discovery of Novel Neo-Clerodane Derivatives as Potent Dual-Functional Antiosteoporosis Agents through Targeting Peroxisome Proliferator-Activated Receptor-γ” (J Med Chem, 2024).
